Experimental data taken from patent EP0284492A1, “Peptidic fractions inducing protective antibodies against the bovine leukemia virus, process for obtaining such fractions, their coding sequences and vaccines produced by these fractions” (RHONE MERIEUX, priority 1987, dated 1988).
Ends that are not written are not given here.

Legend:
[1] = test system: sérums d'animaux infectés par le virus BLV; assay type: binding, bovin, ovin
[2] = test system: pseudotypes VSV (BLV); assay type: cell-based, virus BLV

EPRCPYVGADHFDCP (cysteine pairing not given here) [peptide 78-92, séquence 78-92 de la gp51]
reconnaissance de l'oligopeptide par les sérums [1]: reconnu à la fois par le sérum bovin (sérum n° 15) et le sérum ovin (sérum n° 65) | capacité à inhiber les pseudotypes [2]: remarquable capacité à inhiber les pseudotypes | induction d'anticorps neutralisants [2]: induire des anticorps neutralisants
